Reference: patent US20260265238A1, “COMPOUNDS AND PHARMACEUTICAL COMPOSITIONS THAT DEGRADE SWI/SNF-RELATED MATRIX-ASSOCIATED ACTIN-DEPENDENT REGULATOR OF CHROMATIN SUBFAMILY A” (Plexium, Inc., priority 2023, published 2026)

Tests used:
[1] = molecular target: T1, SMARCA4-HiBiT HeLa cells (protein which is expressed from the SMARCA4 gene) (Homo sapiens, UniProt P51532); experiment: SMARCA4 degradation assay (HiBiT-fusion HeLa cell line, 24 h, luminescence); assay type: cell-based
T1 construct: protein which is expressed from the SMARCA2 and SMARCA4 genes; host or cells: HeLa (SMARCA4-HiBiT engineered line)
T1 sequence (P51532 whole entry, the tested form may be a part): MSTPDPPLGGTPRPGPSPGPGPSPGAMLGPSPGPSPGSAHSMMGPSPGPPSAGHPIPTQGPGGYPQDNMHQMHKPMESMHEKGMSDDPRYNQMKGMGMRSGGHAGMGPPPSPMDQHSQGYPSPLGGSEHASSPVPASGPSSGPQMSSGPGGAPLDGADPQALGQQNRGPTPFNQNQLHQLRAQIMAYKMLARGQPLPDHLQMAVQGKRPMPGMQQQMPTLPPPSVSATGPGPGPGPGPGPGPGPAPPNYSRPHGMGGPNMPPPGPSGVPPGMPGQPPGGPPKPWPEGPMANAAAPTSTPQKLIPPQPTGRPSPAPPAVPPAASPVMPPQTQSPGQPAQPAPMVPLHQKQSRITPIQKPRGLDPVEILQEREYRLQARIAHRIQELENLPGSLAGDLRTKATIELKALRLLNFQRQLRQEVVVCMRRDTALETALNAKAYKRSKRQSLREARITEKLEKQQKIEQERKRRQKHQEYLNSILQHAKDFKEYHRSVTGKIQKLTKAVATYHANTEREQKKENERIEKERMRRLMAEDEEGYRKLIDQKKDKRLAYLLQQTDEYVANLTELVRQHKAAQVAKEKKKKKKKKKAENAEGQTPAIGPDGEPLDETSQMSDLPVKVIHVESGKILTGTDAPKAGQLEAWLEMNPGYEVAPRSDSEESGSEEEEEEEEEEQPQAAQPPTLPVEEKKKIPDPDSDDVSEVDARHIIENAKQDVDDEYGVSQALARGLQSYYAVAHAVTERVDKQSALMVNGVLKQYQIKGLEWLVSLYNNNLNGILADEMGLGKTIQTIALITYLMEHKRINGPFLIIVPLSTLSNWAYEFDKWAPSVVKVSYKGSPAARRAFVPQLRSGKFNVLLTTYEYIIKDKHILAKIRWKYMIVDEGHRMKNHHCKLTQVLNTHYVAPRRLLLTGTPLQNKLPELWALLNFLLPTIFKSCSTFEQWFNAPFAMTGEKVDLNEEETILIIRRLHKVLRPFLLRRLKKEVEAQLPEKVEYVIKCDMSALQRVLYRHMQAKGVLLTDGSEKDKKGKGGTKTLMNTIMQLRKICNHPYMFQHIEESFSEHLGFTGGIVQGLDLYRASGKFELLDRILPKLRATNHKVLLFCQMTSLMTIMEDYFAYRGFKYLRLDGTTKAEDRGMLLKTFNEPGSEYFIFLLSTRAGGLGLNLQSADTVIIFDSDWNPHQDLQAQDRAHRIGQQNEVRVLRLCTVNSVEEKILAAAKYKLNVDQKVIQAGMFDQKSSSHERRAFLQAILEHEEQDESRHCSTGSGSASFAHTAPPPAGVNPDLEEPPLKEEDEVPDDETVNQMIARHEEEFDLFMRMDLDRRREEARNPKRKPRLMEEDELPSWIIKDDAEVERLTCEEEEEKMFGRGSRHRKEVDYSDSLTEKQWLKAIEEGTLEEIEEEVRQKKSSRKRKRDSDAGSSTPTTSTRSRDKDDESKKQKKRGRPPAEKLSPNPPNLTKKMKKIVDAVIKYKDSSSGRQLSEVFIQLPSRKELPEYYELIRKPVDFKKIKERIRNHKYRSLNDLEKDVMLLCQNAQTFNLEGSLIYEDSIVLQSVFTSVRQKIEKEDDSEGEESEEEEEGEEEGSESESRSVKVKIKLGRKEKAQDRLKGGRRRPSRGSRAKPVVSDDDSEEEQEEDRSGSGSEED
Outline: (§1)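 In this 24-hour cellular degradation readout, HiBiT-tagged HeLa lines received compound at up to typically 10 μM down to 300 pM in 10 points. After lysis with LgBiT and substrate, luminescence signals were used to build dose-response curves for DC50.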

[2] = molecular target: T2, SMARCA2-HiBiT HeLa cells (protein which is expressed from the SMARCA2 gene) (Homo sapiens, UniProt P51531); experiment: SMARCA2 degradation assay (HiBiT-fusion HeLa cell line, 24 h, luminescence); assay type: cell-based
T2 construct: protein which is expressed from the SMARCA2 and SMARCA4 genes; host or cells: HeLa (SMARCA2-HiBiT engineered line)
T2 sequence (P51531 whole entry, the tested form may be a part): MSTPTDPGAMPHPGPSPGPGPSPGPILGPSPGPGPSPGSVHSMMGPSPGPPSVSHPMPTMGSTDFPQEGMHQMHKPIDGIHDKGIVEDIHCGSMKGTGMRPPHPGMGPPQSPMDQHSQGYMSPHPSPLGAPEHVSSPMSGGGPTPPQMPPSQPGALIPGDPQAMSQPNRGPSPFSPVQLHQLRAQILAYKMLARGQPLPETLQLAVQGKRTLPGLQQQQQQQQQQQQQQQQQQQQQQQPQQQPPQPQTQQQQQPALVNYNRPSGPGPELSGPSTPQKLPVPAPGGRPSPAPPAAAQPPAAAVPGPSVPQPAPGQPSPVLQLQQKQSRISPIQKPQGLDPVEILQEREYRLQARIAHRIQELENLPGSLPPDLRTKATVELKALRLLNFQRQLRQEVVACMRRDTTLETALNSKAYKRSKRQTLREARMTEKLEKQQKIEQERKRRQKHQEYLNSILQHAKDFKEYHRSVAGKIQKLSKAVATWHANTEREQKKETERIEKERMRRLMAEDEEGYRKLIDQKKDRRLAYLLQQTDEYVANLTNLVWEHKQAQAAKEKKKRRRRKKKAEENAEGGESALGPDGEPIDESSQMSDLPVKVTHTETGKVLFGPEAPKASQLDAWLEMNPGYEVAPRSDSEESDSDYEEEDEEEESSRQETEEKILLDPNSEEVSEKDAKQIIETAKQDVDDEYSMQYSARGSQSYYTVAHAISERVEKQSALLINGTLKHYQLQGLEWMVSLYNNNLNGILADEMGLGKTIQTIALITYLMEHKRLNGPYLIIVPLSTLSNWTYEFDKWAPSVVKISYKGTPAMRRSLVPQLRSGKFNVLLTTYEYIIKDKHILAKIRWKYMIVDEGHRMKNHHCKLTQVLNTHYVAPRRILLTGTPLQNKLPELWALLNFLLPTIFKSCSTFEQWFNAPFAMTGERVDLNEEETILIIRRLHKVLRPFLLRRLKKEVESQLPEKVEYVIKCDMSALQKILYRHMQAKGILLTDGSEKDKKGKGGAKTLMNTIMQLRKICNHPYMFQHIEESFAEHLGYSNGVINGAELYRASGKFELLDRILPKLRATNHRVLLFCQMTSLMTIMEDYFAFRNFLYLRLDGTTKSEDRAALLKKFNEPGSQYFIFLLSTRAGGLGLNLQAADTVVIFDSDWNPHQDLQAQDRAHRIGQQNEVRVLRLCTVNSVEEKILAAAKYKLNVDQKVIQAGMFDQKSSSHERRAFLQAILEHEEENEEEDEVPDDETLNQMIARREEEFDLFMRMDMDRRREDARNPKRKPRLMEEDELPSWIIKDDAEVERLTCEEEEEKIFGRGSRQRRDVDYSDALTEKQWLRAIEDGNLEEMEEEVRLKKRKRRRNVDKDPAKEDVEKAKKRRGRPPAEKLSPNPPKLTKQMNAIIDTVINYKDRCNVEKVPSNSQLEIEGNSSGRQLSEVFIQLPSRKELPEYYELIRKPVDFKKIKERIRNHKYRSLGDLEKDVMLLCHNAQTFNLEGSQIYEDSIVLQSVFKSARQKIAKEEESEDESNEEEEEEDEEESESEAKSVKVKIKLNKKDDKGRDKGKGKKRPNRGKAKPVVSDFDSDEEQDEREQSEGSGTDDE
Outline: as §1

| SMILES | DC50 [1] [nM] | inhibition at 1 µM [1] [%] | DC50 [2] [nM] | SMARCA2 % Degradation @ 1 μM [2] |
| --- | --- | --- | --- | --- |
| COCC1CN(CC#Cc2nccc(N3CCN(c4cc(-c5ccccc5O)nnc4N)CC[C@H]3C)n2)CCO1 (stereo partly drawn) [Compound P-161, o-{5-[(R)-4-(2-{3-[2-(methoxymethyl)-4-morpholinyl]-1-propynyl}-4-pyrimidinyl)-5-methyl-1,4-diazepan-1-yl]-6-amino-3-pyridazinyl}phenol] | 50 to 500 | 30 to 70 | 50 to 500 | ++ (++=30-70%) |
| COCC1COCCN1CC#Cc1nccc(N2CCN(c3cc(-c4ccccc4O)nnc3N)CC[C@H]2C)n1 (stereo partly drawn) [Compound P-162, o-{5-[(R)-4-(2-{3-[3-(mcthoxymcthyl)-4-morpholinyl]-1-propynyl}-4-pyrimidinyl)-5-methyl-1,4-diazepan-1-yl]-6-amino-3-pyridazinyl}phenol] | 50 to 500 | 30 to 70 | 50 to 500 | ++ (++=30-70%) |
| C[C@@H]1CCN(c2cc(-c3ccccc3O)nnc2N)CCN1c1ccnc(C=CCN(C)CC(F)F)n1 [Compound P-163, o-{5-[(R)-4-(2-{3-[(2,2-difluoroethyl)-N-methylamino]-1-propenyl}-4-pyrimidinyl)-5-methyl-1,4-diazepan-1-yl]-6-amino-3-pyridazinyl}phenol] | 50 to 500 | < 30 | 50 to 500 | ++ (++=30-70%) |
| C[C@@H]1CCN(c2cc(-c3ccccc3O)nnc2N)CCN1c1ccnc(/C=C/CN(C)CCF)n1 [Compound P-164] | < 50 | 30 to 70 | < 50 | +++ (+++=>70%) |
| CNC/C=C/c1nccc(N2CCN(c3cc(-c4ccccc4O)nnc3N)CC[C@H]2C)n1 [Compound P-165, o-{5-[(R)-5-methyl-4-{2-[3-(methylamino)-1-propenyl]-4-pyrimidinyl}-1,4-diazepan-1-y1]-6-amino-3-pyridaziny1}phenol] | 50 to 500 | 30 to 70 | 50 to 500 | +++ (+++=>70%) |
| C[C@@H]1CCN(c2cc(-c3ccccc3O)nnc2N)CCN1c1ccnc(/C=C/CN2CCC2)n1 [Compound P-166, o-{5-[(R)-4-{2-[3-(1-azetidinyl)-1-propenyl]-4-pyrimidinyl}-5-methyl-1,4-diazepan-1-yl]-6-amino-3-pyridazinyl}phenol] | 50 to 500 | > 70 | 50 to 500 | +++ (+++=>70%) |
| C[C@@H]1CCN(c2cc(-c3ccccc3O)nnc2N)CCN1c1ccnc(/C=C/CN2CCOCC2)n1 [Compound P-167, o-(5-{(R)-5-methyl-4-[2-(3-morpholino-1-propenyl)-4-pyrimidinyl]-1,4-diazepan-1-y1}-6-amino-3-pyridazinyl)phenol] | < 50 | < 30 | < 50 | ++ (++=30-70%) |
| COC/C=C/c1nccc(N2CCN(c3cc(-c4ccccc4O)nnc3N)CC[C@H]2C)n1 [Compound P-170, o-(5-{(R)-4-[2-(3-methoxy-1-propenyl)-4-pyrimidinyl]-5-methyl-1,4-diazepan-1-yl}-6-amino-3-pyridazinyl)phenol] | 500 to 5000 | 30 to 70 | 50 to 500 | ++ (++=30-70%) |
| CN(C)CC#Cc1nccc(N2CCCC(c3cc(-c4ccccc4O)nnc3N)CC2)n1 (stereo not shown) [Compound P-172, o-[6-amino-5-(1-{2-[3-(dimethylamino)-1-propynyl]-4-pyrimidinyl}-4-azepanyl)-3-pyridazinyl]phenol] | < 50 | 30 to 70 | < 50 | ++ (++=30-70%) |
| C[C@@H]1CCC(=O)N1CC#Cc1ncc(F)c(N2CCN(c3cc(-c4ccccc4O)nnc3N)CC[C@H]2C)n1 [Compound P-175, (R)-1-[3-(4-{(R)-4-[3-amino-6-(o-hydroxyphenyl)-4-pyridazinyl]-7-methyl-1,4-diazepan-1-yl}-5-fluoro-2-pyrimidinyl)-2-propynyl]-5-methyl-2-pyrrolidinone] | 50 to 500 | < 30 | 50 to 500 | ++ (++=30-70%) |
| C[C@@H]1CCN(c2cc(-c3ccccc3O)nnc2N)CCN1c1nc(C#CCN2C(=O)CC[C@@H]2C)ncc1F [Compound P-176, (S)-1-[3-(4-{(R)-4-[3-amino-6-(o-hydroxyphenyl)-4-pyridazinyl]-7-methyl-1,4-diazepan-1-yl}-5-fluoro-2-pyrimidinyl)-2-propynyl]-5-methyl-2-pyrrolidinone] | 50 to 500 | 30 to 70 | 50 to 500 | ++ (++=30-70%) |
| C[C@@H]1CCN(c2cc(-c3ccccc3O)nnc2N)CCN1c1ccnc(C#CCN2CC3CC(C2)O3)n1 [Compound P-179, o-{5-[(R)-5-methyl-4-(2-{3-(6-oxa-3-azabicyclo[3.1.1]hept-3-yl)-1-propynyl}-4-pyrimidinyl)-1,4-diazepan-1-yl]-6-amino-3-pyridazinyl}phenol] | 50 to 500 | 30 to 70 | 50 to 500 | +++ (+++=>70%) |
| CN(C)CC#Cc1nccc(N2C[C@@H]3CN(c4cc(-c5ccccc5O)nnc4N)C[C@@H]3C2)n1 [Compound P-181, o-{5-[(1R,5S)-7-{2-[3-(dimethylamino)-1-propynyl]-4-pyrimidinyl}-3,7-diazabicyclo[3.3.0]oct-3-yl]-6-amino-3-pyridazinyl} phenol] | < 50 | 30 to 70 | 50 to 500 | ++ (++=30-70%) |
| Nc1nnc(-c2ccccc2O)cc1N1C2CCC1CN(c1ccnc(C#CCN3CC4CC3C4)n1)C2 [Compound P-182, o-{6-amino-5-[3-(2-{3-(2-azabicyclo[2.1.1]hex-2-yl)-1-propynyl}-4-pyrimidinyl)-3,8-diazabicyclo[3.2.1]oct-8-yl]-3-pyridazinyl}phenol] | 50 to 500 | 30 to 70 | 50 to 500 | ++ (++=30-70%) |

The remaining lines, values ahead:

| DC50 [1] [nM] | inhibition at 1 µM [1] [%] | DC50 [2] [nM] | SMARCA2 % Degradation @ 1 μM [2] | SMILES |
| --- | --- | --- | --- | --- |
| 50 to 500 | > 70 | 50 to 500 | +++ (+++=>70%) | C[C@@H]1CCN(c2cc(-c3ccccc3O)nnc2N)CCN1c1ccnc(/C=C/CO)n1 [Compound P-168, o-(5-{(R)-4-[2-(3-hydroxy-1-propenyl)-4-pyrimidinyl]-5-methyl-1,4-diazepan-1-y1}-6-amino-3-pyridazinyl)phenol] |
| 50 to 500 | > 70 | 50 to 500 | +++ (+++=>70%) | C/C=C/c1nccc(N2CCN(c3cc(-c4ccccc4O)nnc3N)CC[C@H]2C)n1 [Compound P-169, o-(5-{(R)-5-methyl-4-[2-(1-propenyl)-4-pyrimidinyl]-1,4-diazepan-1-yl}-6-amino-3-pyridazinyl)phenol] |
| 500 to 5000 | < 30 | 50 to 500 | ++ (++=30-70%) | C[C@@H]1CCN(c2cc(-c3ccccc3O)nnc2N)CCN1c1ccnc(/C=C/C2CC2)n1 [Compound P-171, o-(5-{(R)-4-[2-(2-cyclopropylethenyl)-4-pyrimidinyl]-5-methyl-1,4-diazepan-1-yl}-6-amino-3-pyridazinyl)phenol] |
| 50 to 500 | 30 to 70 | < 50 | +++ (+++=>70%) | C[C@@H]1CCN(c2cc(-c3ccccc3O)nnc2N)CCN1c1ccnc(C#CC2CN(CC(F)(F)F)C2)n1 [Compound P-173, o-{5-[(R)-5-methyl-4-(2-{2-[1-(2,2,2-trifluoroethyl)-3-azetidinyl]ethynyl}-4-pyrimidinyl)-1,4-diazepan-1-y1]-6-amino-3-pyridazinyl}phenol] |
| 50 to 500 | 30 to 70 | 50 to 500 | +++ (+++=>70%) | C[C@@H]1CCN(c2cc(-c3ccccc3O)nnc2N)CCN1c1ccnc(C#CC2CN(CC(F)F)C2)n1 [Compound P-174, o-{5-[(R)-4-(2-{2-[1-(2,2-difluoroethyl)-3-azetidinyl]ethynyl}-4-pyrimidinyl)-5-methyl-1,4-diazepan-1-y1]-6-amino-3-pyridazinyl}phenol] |
| 50 to 500 | < 30 | 50 to 500 | ++ (++=30-70%) | Cc1cc(C)n(CC#Cc2nccc(N3CCN(c4cc(-c5ccccc5O)nnc4N)CC[C@H]3C)n2)n1 [Compound P-177, o-{5-[(R)-4-{2-[3-(3,5-dimethyl-1-pyrazolyl)-1-propynyl]-4-pyrimidinyl}-5-methyl-1,4-diazepan-1-yl]-6-amino-3-pyridazinyl}phenol] |
| 50 to 500 | 30 to 70 | 50 to 500 | +++ (+++=>70%) | C[C@@H]1CCN(c2cc(-c3ccccc3O)nnc2N)CCN1c1ccnc(C#CCN2CC3CCC2CO3)n1 (stereo partly drawn) [Compound P-178, o-{5-[(R)-5-methyl-4-(2-{3-(2-oxa-5-azabicyclo[2.2.2]oct-5-yl)-1-propynyl}-4-pyrimidinyl)-1,4-diazepan-1-yl]-6-amino-3-pyridazinyl}phenol] |
| < 50 | 30 to 70 | < 50 | ++ (++=30-70%) | Nc1nnc(-c2ccccc2O)cc1N1C[C@H]2CN(c3ccnc(C#CCN4CC(F)(F)C4)n3)C[C@H]2C1 [Compound P-180] |
